From article PMC2670829 (BMC Pharmacology, 2009)
Values joined by “and” are separate entries in the source; they are usually repeats but may differ in a detail not shown here. Equal values may be shown once. Read-outs that look alike come from different tables or passages of the source. Marks after values point to notes of the source that are not given here.

How the values were obtained:
[1] = in words
[2] = tested on: subcutaneous Tsc2^-/- tumors (NTC/T2null cells); test: Subcutaneous Tsc2-/- tumor model in nude mice, atorvastatin, doxycycline and rapamycin study; conditions: for Efficacy on tumor growth and survival, in words / Median survival: doxycycline 10 mg/kg IP 5 days per week, rapamycin 8 mg/kg IP 3 days per week; for Median survival: time to tumor volume ~3000 mm^3, atorvastatin 20 mg/kg IP, start at ~50 mm^3
Method: (§1) Nude mice (strain CD-1nuBR, up to 6–8 weeks old) were obtained from Charles River Laboratories, Inc. (Wilmington, Massachusetts) and injected subcutaneously on the dorsal flank with 2.5 million NTC/T2null (Tsc2^-/-, Trp53^-/-) cells. As soon as tumors became visible, they were measured Monday through Friday using calipers. Tumor volumes were calculated using the formula: length × width × width × 0.5 [43]. All mice were euthanized once tumors reached ~3000 mm^3 in accordance with institutional animal care guidelines. Please note that survival analysis is done using time to tumor volume of ~3000 mm^3, because this is when animals are euthanized. […] Statistical comparison of tumor volume measurements between groups is done on the last day that relevant groups had at least four tumor measurements.
A cohort of 48 CD-1 nude mice was injected with NTC/T2null (Tsc2^-/-, Trp53^-/-) cells.
All drug treatments started when tumors reached a volume of ~50 mm^3 (day 1 of treatment), regardless of treatment schedule, and animals were euthanized when tumors reached a volume of ~3000 mm^3. If a volume of 40 mm^3 was reached on Thursday or Friday, treatment began that day. Otherwise, treatment was started on the day tumor volume was ≥50 mm^3.
Mice being treated with doxycycline were treated daily Monday through Friday with 200 μl of a 1.5 mg/ml (10 mg/kg) IP injection. […] All drug doses were calculated based on an average weight of 30 g per mouse. […] Doxycycline powder was obtained from Sigma-Aldrich Co. (St. Louis, MO) and was diluted in sterile PBS.

[3] = tested on: subcutaneous Tsc2^-/- tumors (NTC/T2null cells); test: Subcutaneous Tsc2-/- tumor model in nude mice, sorafenib and rapamycin study; conditions: rapamycin 8 mg/kg IP, sorafenib 60 mg/kg gavage, 5 days per week
Method: as §1
Two mice were excluded from the analyses. […] All drug doses were calculated based on an average weight of 30 g per mouse.

[4] = mouse, in vivo
Method: Animal behavior and health were monitored daily, and animals were weighed at the start of the study and at the time of necropsy. […] All mice from rapamycin treated cohorts were euthanized 24 hours after the last rapamycin treatment upon reaching the endpoint tumor volume. Upon sacrifice, whole blood and tumor were harvested for drug level testing.

[5] = in vivo; conditions: mouse, intraperitoneal, 8 mg/kg
[6] = no reference given; cited from earlier work
[7] = tested on: kidney cystadenomas in Tsc2^+/- mice; test: Kidney tumor (cystadenoma) score by quantitative histopathology in Tsc2+/- mice; format: in vivo, mouse; conditions: for Tumor score per kidney (ave. ± Std. Err.): daily IP treatment at 6–7 and 12–13 months (rapamycin 8 mg/kg, IFN-g 20,000 IU), weekly rapamycin 16 mg/kg at 7–12 months
Method: The Tsc2^+/- mouse is heterozygous for a deletion of exons 1–2 as previously described. The Tsc2^+/- cohort used in this experiment was obtained by crossing these Tsc2^+/- mice with wild-type C57BL/6 mice. In order to avoid bias due to strain variation, sibling littermates were used as controls. Tsc2^+/- mice were assigned to one of three cohorts: rapamycin 8 mg/kg IP, rapamycin 8 mg/kg plus IFN-g 20,000 units IP, and untreated. All mice receiving drug therapy were treated in three consecutive parts: In part one, mice were treated daily (5 days/week, Monday through Friday) for one month (6 months ≤ age < 7 months) with their assigned treatments by intraperitoneal injection (IP). In part two, all mice in both the rapamycin and rapamycin plus IFN-g cohorts stopped their assigned daily treatment and started a weekly 16 mg/kg maintenance dose of rapamycin for five months (7 months ≤ age < 12 months). In the final part, all mice restarted the same treatment they received from 6–7 months of age for one final month (see Table 1). The two month-long periods of daily rapamycin treatment before and after the maintenance treatment were included so that we can compare the results of this study with our previous preclinical studies that also include a total of two months of daily treatment without the weekly maintenance treatment phase. All mice were euthanized at 13 months of age according to institutional animal care guidelines. We evaluated kidney disease at 13 months in this experiment instead of 12 months in prior studies because kidney disease severity is likely to be higher in older mice, and we reasoned that this may allow us to better detect small differences between treatment groups. The severity of kidney disease was determined in all animals using quantitative histopathology as described below.
Rapamycin powder was obtained from LC Laboratories (Woburn, MA) and a 20 mg/ml stock of rapamycin was made in ethanol (stored at -20°C for up to one week). The stock solution was diluted to 1.2 mg/ml in vehicle (0.25% PEG, 0.25% Tween-80) for the 8 mg/kg dose and diluted to 2.4 mg/ml in vehicle for the 16 mg/kg dose. Murine IFN-g (R&D Systems, Minneapolis, MN) was diluted to 100,000 units/ml in sterile phosphate buffered saline (PBS) containing 0.1% mouse serum albumin (Sigma-Aldrich, Inc., St. Louis, MO) and stored at 4°C. […]
For histological quantification of kidney cystadenomas, each kidney was fixed and sliced at 1 mm intervals. […] All slides were coded to keep scoring blinded, and all cystadenomas were counted, measured, and scored according to the scale shown in Table 2 by two blinded researchers (CW and AN). Cystadenomas that extended into more than one 1 mm kidney slice were counted only once and scored according to the maximum diameter. […]

[8] = tested on: kidney cystadenomas in Tsc2^+/- mice; conditions: cited from earlier work; for Percent decrease in tumor score per kidney with treatment / Tumor score per kidney (ave. ± Std. Err.): analysis at 12 months, ref Messina et al., 2007; for Tumor score per kidney (ave. ± Std. Err.): CCI-779 8 mg/kg per day, 5 days/week
[9] = mean ± standard error, rapamycin 8 mg/kg 3 days per week, atorvastatin 20 mg/kg, doxycycline 10 mg/kg 5 days per week, IP
[10] = 8 mg/kg daily × 2 months, total 9.6 mg per mouse, ref Messina et al. 2007

Q: Which “Effect on the metabolism of rapamycin (rapamycin levels in combination cohorts)” value [1] does the source give for `C[C@H]1c2cccc(O)c2C(=O)C2=C(O)[C@]3(O)C(=O)C(C(N)=O)=C(O)[C@@H](N(C)C)[C@@H]3[C@@H](O)[C@@H]21` [Doxycycline] here?
A: did not significantly affect the metabolism of rapamycin

Q: What about the “Efficacy on tumor growth and survival, in words” value ([2]; atorvastatin 20 mg/kg) of the same compound?
A: not effective as either a single agent or in combination with rapamycin

Q: What about the “Day 26, average tumor volume” value [2, 9] of the same compound?
A: 1749 ± 352 mm^3

Q: What about the Median survival [2] of the same compound?
A: 28 days

Q: Which results are given for `CNC(=O)c1cc(Oc2ccc(NC(=O)Nc3ccc(Cl)c(C(F)(F)F)c3)cc2)ccn1` [Sorafenib]?
A: Day 16, average tumor volume ([3]; mean ± standard error): 2209 ± 499 mm^3; Efficacy on tumor growth and survival, in words [3]: not effective; Effect on the metabolism of rapamycin (rapamycin levels in combination cohorts) [1]: did not significantly affect the metabolism of rapamycin

Q: With `CO[C@H]1C[C@@H]2CC[C@@H](C)[C@@](O)(O2)C(=O)C(=O)N2CCCC[C@H]2C(=O)O[C@H]([C@H](C)C[C@@H]2CC[C@@H](O)[C@H](OC)C2)CC(=O)[C@H](C)/C=C(\C)[C@@H](O)[C@@H](OC)C(=O)[C@H](C)C[C@H](C)/C=C/C=C/C=C/1C` [Rapamycin] as the compound, how does the “Day 16, average tumor volume” value ([3]; mean ± standard error) read?
A: 284 ± 52 mm^3

Q: What about the “Day 43, average tumor volume” value ([3]; mean ± standard error) of the same compound?
A: 2499 ± 222 mm^3

Q: And the “Day 44, average tumor volume” value ([3]; mean ± standard error)?
A: 2607 ± 247 mm^3

Q: What about the Median survival ([3]; time to tumor volume ~3000 mm^3, start at ~150 mm^3) of the same compound?
A: 46 days

Q: What about the “Weight at Necropsy” value [4] of the same compound?
A: 35.6 ± 0.6 g

Q: What about the “Weight at Start” value [4] of the same compound?
A: 36.0 ± 0.6 g

Q: And the Weight gain [4]?
A: -0.4 ± 0.6 g

Q: What about the “Weight gain, in words” value [4] of the same compound?
A: failed to gain weight

Q: What about the concentration at 24 h ([5]; CD-1 nude, tumor) of the same compound?
A: 258 ± 91.6 ng/mL

Q: What about the concentration at 24 h ([5]; nude, whole blood) of the same compound?
A: 42.9 ± 24.7 ng/mL

Q: What about the “Trough levels for standard rapamycin dosing in humans” value [6] of the same compound?
A: 3 to 20 ng/mL

Q: And the “Score of kidney lesion subtypes (cystic, pre-papillary, papillary, solid)” value ([7]; 13 months, in words, no statistics)?
A: reduced the score of all subtypes of kidney lesions

Q: What about the “Tumor score per kidney (ave. ± Std. Err.)” value ([7]; analysis at 13 months) of the same compound?
A: 0.83 ± .018

Q: What about the “Tumor score per kidney (ave. ± Std. Err.)” value ([7]; analysis at 13 months, listed as rapamycin) of the same compound?
A: 0.83 ± 0.18

Q: And the “Percent decrease in tumor score per kidney with treatment” value ([7]; vs untreated, analysis at 13 months, daily treatment 6–7 and 12–13 months, weekly rapamycin 16 mg/kg 7–12 months)?
A: 94.5%

Q: What about the “Day 26, average tumor volume” value [2, 9] of the same compound?
A: 544 ± 110 mm^3

Q: And the “Day 42, average tumor volume” value [2, 9]?
A: 1784 ± 643 mm^3

Q: And the Median survival [2]?
A: 41.5 days

Q: Which results are given for `CC(C)c1c(C(=O)Nc2ccccc2)c(-c2ccccc2)c(-c2ccc(F)cc2)n1CC[C@@H](O)C[C@@H](O)CC(=O)O` [Atorvastatin]?
A: Efficacy on tumor growth and survival, in words ([2]; atorvastatin 20 mg/kg): did not reduce tumor growth or improve survival as a single agent; Day 26, average tumor volume [2, 9]: 1931 ± 298 mm^3; Median survival [2]: 32.5 days

Q: For `CO[C@H]1C[C@@H]2CC[C@@H](C)[C@@](O)(O2)C(=O)C(=O)N2CCCC[C@H]2C(=O)O[C@H]([C@H](C)C[C@@H]2CC[C@@H](OC(=O)C(C)(CO)CO)[C@H](OC)C2)CC(=O)[C@H](C)/C=C(\C)[C@@H](O)[C@@H](OC)C(=O)[C@H](C)C[C@H](C)/C=C/C=C/C=C/1C` [CCI-779, temsirolimus], which “% Reduction in kidney tumors (kidney tumor number)” value ([8]; 4 mg/kg 3 times a week × 3 months, total 4.32 mg per mouse, ref Lee et al. 2005) is on record?
A: 84% and 83.6%**

Q: And the “% Reduction in kidney tumors (kidney tumor number)” value [8, 10]?
A: 64%

Q: What about the “% Reduction in kidney tumors (kidney tumor score)” value [8, 10] of the same compound?
A: 63%*

Q: What about the “Percent decrease in tumor score per kidney with treatment” value ([8]; CCI-779 8 mg/kg per day at 6–8 months) of the same compound?
A: 39.7%

Q: And the “Percent decrease in tumor score per kidney with treatment” value ([8]; CCI-779 8 mg/kg per day at 10–12 months, 8 mg/kg/day)?
A: 64.4%

Q: And the “Tumor score per kidney (ave. ± Std. Err.)” value ([8]; at 6–8 months)?
A: 6.00 ± 1.01

Q: And the “Tumor score per kidney (ave. ± Std. Err.)” value ([8]; at 10–12 months)?
A: 3.54 ± 0.76
